Drawing on US7973047B2, “Beta-Secretase modulators and methods of use” (Amgen Inc., priority 2010, dated 2011), this text covers IC50 for 36 compounds.

The assay deals with Aβ40 in conditioned medium of cells stably expressing Amyloid Precursor Protein (APP). Description: BACE cell-based assay: Aβ40 in conditioned medium by sandwich ELISA. The protocol:
The cell-based assay measures inhibition or reduction of Aβ40 in conditioned medium of test compound treated cells expressing amyloid precursor protein.
Cells stably expressing Amyloid Precursor Protein (APP) were plated at a density of 40K cells/well in 96 well plates (Costar). The cells were cultivated for 24 hours at 37° C. and 5% CO2 in DMEM supplemented with 10% FBS. The test compounds were then added to cells in 10-point dose response concentrations with the starting concentration being either 100 μM or 10 μM. The compounds were diluted from stock solutions in DMSO and the final DMSO concentration of the test compounds on cells was 0.1%. After 24 h of incubation with the test compounds the supernatant conditioned media was collected and the Aβ40 levels were determined using a sandwich ELISA. The ICso of the compound was calculated from the percent of control or percent inhibition of Aβ40 as a function of the concentration of the test compound.
The sandwich ELISA to detect Aβ40 was performed in 96 well microtiter plates, which were pre-treated with goat anti-rabbit IgG (Pierce). The capture and detecting antibody pair that were used to detect Aβ40 from cell supernatants were affinity purified pAb40 (Biosource) and biotinylated 6E10 (Signet Labs Inc.), respectively. The optimal concentration for the pAb40 antibody was 3 μg/ml in Superblock/TBS (Pierce) that was supplemented with 0.05% Tween 20 (Sigma).
Cellular supernatants were incubated with the capture antibody for 3 h at 4° C., followed by 3 wash steps in TBS-tween (0.05%). The detecting antibody incubation was for 2 h at 4° C., again followed by the wash steps as described previously. The final readout of the ELISA is Time-Resolved Fluorescence (counts per minute) using Delfia reagents Streptavidin-Europium and Enhancement solutions (Perkin Elmer) and the Victor 2 multilabel counter (Perkin Elmer).
In general terms: An ELISA detects its analyte on a solid surface through an enzyme-linked reagent.

Where [1] appears, read: cells stably expressing APP, 24 h incubation with compound, Aβ40 in supernatant by sandwich ELISA, read-out: IC50 values in the cell-based assay (inhibition or reduction of Aβ40).
The mark [2] stands for this setting: cell based assay data of Table 4, unit inferred, read-out: Cell Assay.

Structures are written as SMILES. Where two headings read alike, the source gives them in different places. Some results are limits rather than exact numbers.

For the compound `CC(=O)N[C@@H](Cc1cc(F)cc(F)c1)[C@H](O)CN[C@H]1C[C@@]2(CCOC2)Oc2c(Br)cc(Cl)cc21` [Example 249], the IC50 under setting [1] is at most 5000 nM.
Take `CCc1ccc2c(c1)[C@@H](NC[C@@H](O)[C@H](Cc1cccc(Br)c1)NC(=O)CCCCCCNC(=O)OCc1ccccc1)CC1(CCC1)O2` [Example 337]: the IC50 under setting [1] was at most 5000 nM.
Still for that read-out and setting: as for `CC(=O)N[C@@H](Cc1ccccc1)[C@H](O)CN[C@H]1CC2(CCC2)Oc2ncc(C3CCCO3)cc21` (stereo partly drawn) [Example 384], the figure is at most 5000 nM.
Take `CC(=O)N[C@@H](Cc1cc(F)cc(F)c1)[C@H](O)CN[C@H]1CC2(CCC2)Oc2ccc(-c3cn(C)nn3)cc21` [compound 520]: the IC50 under setting [2] is 2160 nM.
Same read-out and setting: the same measure for `CC(=O)N[C@@H](Cc1ccccc1)[C@H](O)CN[C@H]1CC2(CCC2)Oc2ccc(-c3cn(C)nn3)cc21` [compound 521]: at least 10000 nM.
Still for that read-out and setting: the same measure for `CC(=O)N[C@@H](Cc1ccccc1)[C@H](O)CN[C@H]1CC2(CCC2)Oc2ncc(CC(C)C)cc21` [compound 523]: 4.09 nM; for `CC(=O)N[C@@H](Cc1cccc(C#N)c1)[C@H](O)CN[C@H]1CC2(CCC2)Oc2ncc(CC(C)(C)F)cc21` [compound 524]: 2.42 nM; for `CC(=O)N[C@@H](Cc1cccc(F)c1)[C@H](O)CN[C@H]1CC2(CCC2)Oc2ncc(CC(C)(C)F)cc21` [compound 525]: 3.94 nM.
Turning to `CC(=O)N[C@@H](Cc1cccc(C#N)c1)[C@H](O)CN[C@H]1CC(C)(C)Oc2ccc(Br)cc21` [compound 526], under setting [2], the IC50 was found to be 116 nM.
Still for that read-out and setting: as for `COCC(=O)N[C@@H](Cc1cccc(C#N)c1)[C@H](O)CN[C@H]1CC(C)(C)Oc2ccc(Br)cc21` [compound 527], the figure is 120 nM.
As to `CN(C)CC(=O)N[C@@H](Cc1cccc(C#N)c1)[C@H](O)CN[C@H]1CC(C)(C)Oc2ccc(Br)cc21` [compound 528], the IC50 under setting [2] came out at 1120 nM.
As for `CCc1cc(Br)c2c(c1)[C@@H](NC[C@@H](O)[C@H](Cc1cccc(C#N)c1)NC(C)=O)CC(C)(C)O2` [compound 529], the IC50 under setting [2] was 33.9 nM.
As to `CCc1cc2c(c(N3CCOCC3)c1)OC(C)(C)C[C@@H]2NC[C@@H](O)[C@H](Cc1cccc(C#N)c1)NC(C)=O` [compound 532], the IC50 under setting [2] was found to be 11.2 nM.
On the same count and under the same terms, as for `CCc1cc(NC)c2c(c1)[C@@H](NC[C@@H](O)[C@H](Cc1ccccc1)NC(C)=O)CC(C)(C)O2` [compound 535], the figure is 924 nM.
Still for that read-out and setting: the same measure for `CC(=O)N[C@@H](Cc1ccc(F)cc1)[C@H](O)CN[C@H]1CC2(CCC2)Oc2c1cc(CC(C)(C)C)cc2N1CCOCC1` [compound 536]: 2090 nM.
For the compound `CC(=O)N[C@@H](Cc1ccccc1)[C@H](O)CN[C@H]1CC2(CCC2)Oc2c1cc(CC(C)(C)C)cc2N1CCOCC1` [compound 537], the IC50 under setting [2] worked out at 1970 nM.
Still for that read-out and setting: as for `CC(=O)N[C@@H](CC(C)C)[C@H](O)CN[C@H]1CC2(CCC2)Oc2ncc(CC(C)(C)C)cc21` [compound 538, N-((1S)-1-((1R)-2-(((4′S)-6′-(2,2-dimethylpropyl)-3′,4′-dihydrospiro[cyclobutane-1,2′-pyrano[2,3-b]pyridin]-4′-yl)amino)-1-hydroxyethyl)-3-methylbutyl)acetamide], the figure is 177 nM; as for `C=C(C)C[C@H](NC(C)=O)[C@H](O)CN[C@H]1CC2(CCC2)Oc2ncc(CC(C)(C)C)cc21` [compound 539, N-((1S)-1-((1R)-2-(((4′S)-6′-(2,2-dimethylpropyl)-3′,4′-dihydrospiro[cyclobutane-1,2′-pyrano[2,3-b]pyridin]-4′-yl)amino)-1-hydroxyethyl)-3-methyl-3-buten-1-yl)acetamide], 50.3 nM.
Same read-out and setting: the same measure for `CC(=O)N[C@@H](Cc1cccc(C#N)c1)[C@H](O)CN[C@H]1CC2(CCC2)Oc2ncc(CC(C)(C)C)cc21` [compound 540, N-((1S,2R)-1-((3-cyanophenyl)methyl)-3-(((4′S)-6′-(2,2-dimethylpropyl)-3′,4′-dihydrospiro[cyclobutane-1,2′-pyrano[2,3-b]pyridin]-4′-yl)amino)-2-hydroxypropyl)acetamide]: 2.03 nM; for `CC(=O)N[C@@H](Cc1ccccc1)[C@H](O)CN[C@H]1CC2(CCC2)Cc2ncc(C)cc21` [compound 541, N-((1S,2R)-2-hydroxy-3-(((5′S)-3′-methyl-5′,8′-dihydro-6′H-spiro[cyclobutane-1,7′-quinolin]-5′-yl)amino)-1-(phenylmethyl)propyl)acetamide]: 651 nM; for `CC(=O)N[C@@H](Cc1cccc(C#N)c1)[C@H](O)CN[C@H]1CC2(CCC2)Cc2ncc(C)cc21` [compound 542, N-((1S,2R)-1-((3-cyanophenyl)methyl)-2-hydroxy-3-(((5′S)-3′-methyl-5′,8′-dihydro-6′H-spiro[cyclobutane-1,7′-quinolin]-5′-yl)amino)propyl)acetamide]: 64.6 nM.
The same measure, in the same setting: the same measure for `CC(=O)N[C@@H](Cc1cccc(C#N)c1)[C@H](O)CN[C@H]1CC(C)(C)Cc2ncc(C)cc21` [compound 543]: 124 nM.
With `CC(=O)N[C@@H](Cc1cc(F)cc(F)c1)[C@H](O)CN[C@H]1CC2(CCC2)Oc2ccc(-c3ncco3)cc21` [compound 544], the IC50 under setting [2] amounted to 631 nM.
The same measure, in the same setting: as for `CC(=O)N[C@@H](Cc1ccccc1)[C@H](O)CN[C@H]1CC(C)(C)Oc2ncc(CC(C)(C)C)cc21` [compound 545], the figure is 4.61 nM.
On the same count and under the same terms, as for `CC(=O)N[C@@H](Cc1cccc(F)c1)[C@H](O)CN[C@H]1CC(C)(C)Oc2ncc(CC(C)(C)C)cc21` [compound 546], the figure is 1.67 nM; as for `CC(=O)N[C@@H](Cc1ccc(F)cc1)[C@H](O)CN[C@H]1CC2(CCCC2)Oc2ncc(CC(C)(C)C)cc21` [compound 547], 34.8 nM; as for `CC(=O)N[C@@H](Cc1cc(F)cc(F)c1)[C@H](O)CN[C@H]1CC2(CCCC2)Oc2ncc(CC(C)(C)C)cc21` [compound 548], 2.83 nM.
Still for that read-out and setting: as for `CC(=O)N[C@@H](Cc1cccc(F)c1)[C@H](O)CN[C@H]1CC2(CCCC2)Oc2ncc(CC(C)(C)C)cc21` [compound 549], the figure is 6.93 nM; as for `CC(=O)N[C@@H](Cc1ccc(F)cc1)[C@H](O)CN[C@H]1CC2(CCC2)Oc2ncc([C@H](F)C(C)C)cc21` [compound 552, N-((1S,2R)-3-(((4′S)-6′-((1R)-1-fluoro-2-methylpropyl)-3′,4′-dihydrospiro[cyclobutane-1,2′-pyrano[2,3-b]pyridin]-4′-yl)amino)-1-((4-fluorophenyl)methyl)-2-hydroxypropyl)acetamide], 1260 nM.
Turning to `CC(=O)N[C@@H](Cc1ccc(F)cc1)[C@H](O)CN[C@H]1CC2(CCC2)Oc2ncc([C@@H](F)C(C)C)cc21` [compound 553], under setting [2], the IC50 amounted to 272 nM.
The same measure, in the same setting: as for `CC(=O)N[C@@H](Cc1cccc(F)c1)[C@H](O)CN[C@H]1CC2(CCC2)Oc2ncc([C@@H](F)C(C)C)cc21` [compound 555], the figure is 1430 nM; as for `CC(=O)N[C@@H](Cc1ccc(F)cc1)[C@H](O)CN[C@H]1CC2(CCC2)Nc2ccc(CC(C)(C)C)cc21` [compound 559, N-((1S,2R)-3-(((4′S)-6′-(2,2-dimethylpropyl)-3′,4′-dihydro-1′H-spiro[cyclobutane-1,2′-quinolin]-4′-yl)amino)-1-((4-fluorophenyl)methyl)-2-hydroxypropyl)acetamide], 105 nM.
On the same count and under the same terms, as for `CC(=O)N[C@@H](Cc1cc(F)cc(F)c1)[C@H](O)CN[C@H]1CC2(CCC2)Nc2ccc(CC(C)(C)C)cc21` [compound 560, N-((1S,2R)-1-((3,5-difluorophenyl)methyl)-3-(((4′S)-6′-(2,2-dimethylpropyl)-3′,4′-dihydro-1′H-spiro[cyclobutane-1,2′-quinolin]-4′-yl)amino)-2-hydroxypropyl)acetamide], the figure is 11.7 nM; as for `CC(=O)N[C@@H](Cc1cccc(F)c1)[C@H](O)CN[C@H]1CC2(CCC2)Nc2ccc(CC(C)(C)C)cc21` [compound 561, N-((1S,2R)-3-(((4′S)-6′-(2,2-dimethylpropyl)-3′,4′-dihydro-1′H-spiro[cyclobutane-1,2′-quinolin]-4′-yl)amino)-1-((3-fluorophenyl)methyl)-2-hydroxypropyl)acetamide], 29.4 nM.
Still for that read-out and setting: as for `CC(=O)N[C@@H](Cc1ccc(F)c(Br)c1)[C@H](O)CN[C@H]1CC2(CCC2)Nc2ccc(CC(C)(C)C)cc21` [compound 562, N-((1S,2R)-1-((3-bromo-4-fluorophenyl)methyl)-3-(((4′S)-6′-(2,2-dimethylpropyl)-3′,4′-dihydro-1′H-spiro[cyclobutane-1,2′-quinolin]-4′-yl)amino)-2-hydroxypropyl)acetamide], the figure is 141 nM; as for `CC(=O)N[C@@H](Cc1ccc(F)cc1)[C@H](O)CN[C@H]1CC2(CCCC2)C(=O)c2ccc(CC(C)(C)C)cc21` [compound 563, N-((1S,2R)-3-(((4′S)-6′-(2,2-dimethylpropyl)-1′-oxo-3′,4′-dihydro-1′H-spiro[cyclopentane-1,2′-naphthalen]-4′-yl)amino)-1-((4-fluorophenyl)methyl)-2-hydroxypropyl)acetamide], at least 10000 nM.
